What was measured:
[1] = test system: Leishmania donovani amastigotes; test: Anti-leishmania activity, amastigotes in THP-1 macrophages; assay type: cell-based; settings: 96 hours, read-out: IC50, L. donovani amastigotes in THP-1 macrophages
Method: To test the anti-leishmania activity, Leishmania donovani strains: L. donovani reporter expressing red fluorescent protein, DsRed2 transgenic L. donovani (LV82)15, obtained from Ohio State University. Columbus (OSUMC). Extracellular (Promastigotes) L. donovani parasites were maintained in M199 media supplemented with 15% heat-inactivated fetal bovine serum (HI-FBS), 20 mM HEPES, 100 U/ml of penicillin and streptomycin at pH 5.5 with 5% CO2. Cultures were constantly maintained in a 25° C. incubator. Anti-leishmanial activity was determined by incubating exponentially growing log-phase promastigotes with THP-1 macrophage for 24 h to infect. Following this, plates were washed to remove the uninfected promastigotes, STD drug and Calxinin were treated 96-well plates for 96 hours. Miltefosine and paromomycin, standard medications, serve as a positive control at equivalent concentrations. Morphological alterations in the amastigotes following treatment with drugs, were examined by fluorescent microscopy. Images were analyzed for percent parasite survival upon drug treatment and enumerated the IC50. The inhibition curve of Compound I was very similar to Amphotericin B (AmpB) and lower than the 2 standard drugs.

[2] = test system: P. berghei ookinete (Pb-GFPcon); test: In vitro ookinete inhibition assay; assay type: cell-based, Plasmodium berghei
Method: [3] In vitro Ookinete inhibition assay of Calxinin. To determine whether Compound I (Calxinin) is blocking the growth of the transmission stage of malaria GFP-expressing P. berghei ANKA constitutively (Pb-GFPcon), which expresses the GFP during all the developmental stages, was used during in vitro experiments. Compound I (Calxinin) was tested in nanomolar range for its ability to inhibit ookinete development. Early gametocyte stage was maintained in vitro by incubating in ookinete media containing Xanthrunic acid and various other nutrients (complete DMEM) and pH 8.0. For the inhibition assay, culture plates containing Calxinin at different concentrations were incubated for about 24 h at 19° C. on a shaker and in the dark. After 24 h, ookinete development was checked by generating blood smears from the cultures. Smears were fixed, stained with Giemsa and counted in a NIKON 80i microscope.
Example 13—In-vitro Ookinete inhibition assay Encouraged with notable potency against symptomatic asexual blood stage, liver stage, and gametocidal activity, transmission blocking efficacy of Compound I (Calxinin) was evaluated against ookinete. […] As the concentration of Compound I increases, the percentage of healthy parasite is reduced and the % of deformed parasite increases (FIG. 7B).

[3] = In vitro cytotoxicity, HEK293 (Alamar Blue); assay type: cell-based; settings: human, HEK293 cells; read-out: CC50 (50% cell toxicity)
Method: In addition, the cell viability of Huh 7 and HEK293 cells was evaluated post drug exposure using the Alamar Blue assay [Riss, Terry L., et al. “Cell viability assays.” Assay Guidance Manual [Intenet]. Eli Lilly & Company and the National Centre for Advancing Translational Sciences, 2016]. Cells ([…]) were exposed to varying concentrations of test compounds, for 24 hours in 96-well plate format along with 10/100 μL Alamar Blue solution (10×=4.8 mM in phosphate buffer) per well. […] Results from the cytotoxicity assays were expressed as CC50 at which 50% of the cells died/metabolically slowed down due to drug exposure compared to the non-treated and vehicular control.
The cytotoxicity of Compound I was tested by exposing peripheral blood mononuclear cells (PBMCs) to drug concentrations corresponding to averages of both Pf3D7 and PfDd2 IC50 values. This was intended to establish whether the observed antiparasitic effects of the compounds were due to non-specific inhibitory activity. […] The IC50 required for killing the parasite is <90 nM. Therefore, in order to be toxic for human cells we have to use over 650 fold concentration.

[4] = test system: sexual erythrocytic stages of PfDd2 cultures; test: Anti-gametocyte activity, stage I and II gametocytes; assay type: cell-based, Plasmodium falciparum
Method: The effect of Compound I was tested on the development of sexual erythrocytic stages of PfDd2 cultures. Stage I and II gametocytes, were incubated for forty-eight hours with drug concentration considering the IC50 values of compounds at asexual stage assay.

[5] = In vitro cytotoxicity, HepG2; assay type: cell-based; settings: human, HepG2 cells; read-out: CC50 (50% cell toxicity)
primary and human cells = test: Cell cytotoxicity assays in primary and human cells (summary statements); assay type: cell-based
Method: PBMC were isolated from healthy donors using the Ficoll-Paque™ technique (GE Healthcare Bioscience AB, Uppsala, Sweden) from donor leukopack samples obtained from LUMC blood bank services. […] Robust cells at a concentration of 80,000 cells/ml were plated into 96-well plates and incubated for 24 hours. Cell viability and proliferation was determined by use of both MTT and Cell Titer Glo@ assays for both cell types. MTT assay was conducted by addition of 10 μL MTT solution (5 mg/mL) into each well, incubated for 4 hour at 37° C. followed by addition of 50 μL DMSO to dissolve the formazan precipitate according to the manufacturer's protocol. Aliquots were drawn from each well and color intensity was measured spectrophotometrically in SpectraMax® M5 Multi-Mode Microplate Reader.
In addition, the cell viability of Huh 7 and HEK293 cells was evaluated post drug exposure using the Alamar Blue assay [Riss, Terry L., et al. “Cell viability assays.” Assay Guidance Manual [Intenet]. […] Cells (1×10/well) were exposed to varying concentrations of test compounds, for 24 hours in 96-well plate format along with 10/100 μL Alamar Blue solution (10×=4.8 mM in phosphate buffer) per well.

[6] = Hemostatic parameters, plasmatic and whole blood assays (thrombelastography)
Method: Studies were performed to assess the effect of Calxinin on hemostatic parameters using plasmatic and whole blood assays.

[7] = test system: L. donavani infected THP1 cells; test: Calcium levels in L. donavani infected THP1 cells (Fluo4-AM); assay type: cell-based, Leishmania donovani; settings: 10 μM, within few seconds, preliminary
Method: A macrophage differentiated cell culture of THP1 cell lines by phorbol 12-myristate 13-acetate (PMA) concentration of 15 ng/ml was established on 15 mm glass bottom petri dishes. The confluent cells were infected with leishmania promastigotes in 1:5 ratio. The infected macrophages were washed after 24 hr.
Incubation was conducted to remove uninfecting promastigotes with same RPMI medium with 6% FCS. The culture was then washed twice in HEPES-buffered saline solution (HBSS) (in mM: 25 HEPES, 121 NaCl, 5 NaHCO3, 4.7 KCl, 1.2 KH2PO4, 1.2 MgSO4, 2.0 CaCl2), 10 glucose, 0.04 probenecid, and 0.25% (w/v) fatty acid-free BSA, pH 7.4). The culture was switched to the same buffer with Fluo4-AM (1×), Hoechst 33258 (1×) and charged for 40 minutes. The cells were then washed in same buffer without dye and mounted on the stage of inverted LSM 510 Zeiss, […], 1.4 NA, oil-immersion objective, zoom 4-6, z-stacks of […] thin optical sections, 4-8× average, 2,000×2,000 pixel window, range indicator used for optimized illumination, and 488, 543, 633 laser lines used for excitation. Compounds Miltefosine, Amphotericin B, calxinin and DMSO were added during time-course experiments. Preliminary results of Amastigotes treated with DMSO (negative control) and treated Compound 1 (10 μM) were generated.

## NC(Cc1ccccc1)C(O)CN1CCN(Cc2ccc(C(F)(F)F)cc2)CC1 (stereo not shown) [Compound I]
[1]
  IC50: 79.8 nM
[2]; 450 nanomolar
  ookinete morphology: deformed and retarded Ookinete
[2]; Plasmodium berghei, 24 h, 19° C.
  IC50: ~150 nM
[3]
  CC50 at 24 h: 60.2 µM
[4]; 48 hours at asexual stage IC50, vs DMSO control
  maturation of stage III to V gametocytes (PfDd2): 41.0
[4]; 48 hours, vs DMSO control
  gametocyte morphology: morphologically distorted gametocytes
[4]; 48 hrs at 88 nM
  decreased proportion of stage III to V gametocytes: up to 59%
[5]
  CC50: 1.35 mM
Primary and human cells
  toxicity to HEK293, Huh 7.1, HepG2 and PBMCs: did not show any toxicity
Primary and human cells; primary and human cells
  concentration up to which no toxicity was seen: > 30 µM
[6]
  anticoagulant effect (hemostatic parameters): no adverse impact
[6]; up to 20 μg/ml
  clot formation by thrombelastography: did not impact clot formation
[7]
  calcium levels of Macrophage+L. donavani: changes in the calcium levels

Reference: patent US11485714B2, “Hydroxyethylamine-based piperazine compounds, and methods of producing and using the same for treating disease” (National Institute of Immunology, priority 2020, dated 2022)
